According to PubChem BioAssay (NCI):
“And” between values parts separate entries of the source, which are not always exact repeats. Identical values can stand only once.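 Tested at 5 concentrations; 48 h exposure; 96-well plates; endpoints linearly interpolated, else capped at highest concentration. The concentration for 50% growth inhibition is given as GI50. At the TGI there is no net growth.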

Key:
Assay in all cases: NCI anticancer screen, dose series, 48 h
SN12C renal = test system: SN12C renal
OVCAR-4 ovarian = test system: OVCAR-4 ovarian
HL-60(TB) leukemia = test system: HL-60(TB) leukemia
ACHN renal = test system: ACHN renal
CAKI-1 renal = test system: CAKI-1 renal
U251 CNS = test system: U251 CNS
MDA-MB-435 = test system: MDA-MB-435
NCI-H522 lung = test system: NCI-H522 lung
MDA-MB-231 breast = test system: MDA-MB-231 breast
SK-MEL-2 melanoma = test system: SK-MEL-2 melanoma

Row | Compound | TGI (SN12C renal) | TGI (OVCAR-4 ovarian) | TGI (HL-60(TB) leukemia) | TGI (ACHN renal) | TGI (CAKI-1 renal) | TGI (U251 CNS) | TGI (MDA-MB-435) | TGI (NCI-H522 lung) | TGI (MDA-MB-231 breast) | TGI (SK-MEL-2 melanoma) | GI50 (SN12C renal) | GI50 (OVCAR-4 ovarian) | GI50 (ACHN renal) | GI50 (MDA-MB-435) | GI50 (NCI-H522 lung) | GI50 (CAKI-1 renal) | GI50 (MDA-MB-231 breast) | GI50 (U251 CNS) | GI50 (HL-60(TB) leukemia) | GI50 (SK-MEL-2 melanoma)
1 | CC(=O)N1C/C(=C\c2ccc(N(C)C)cc2)C(=O)/C(=C/c2ccc(N(C)C)cc2)C1 | > 100 µM | > 100 µM | > 100 µM | > 100 µM | > 100 µM | > 100 µM |  |  |  |  |  |  |  |  |  |  |  |  |  | 
2 | CNc1nc(N)c(N=O)c(Nc2ccc(Br)cc2)n1 | > 100 µM |  | > 100 µM | > 100 µM |  | > 100 µM | > 100 µM | > 100 µM | > 100 µM | > 100 µM |  |  |  |  |  |  |  |  |  | 
3 | CCCCOC(=O)NC(=O)c1cn(C2CCCCC2)c(=O)[nH]c1=O | > 100 µM | 48.6 µM | > 100 µM | 67.3 µM |  | 76.1 µM |  | > 100 µM |  | > 100 µM |  |  |  |  |  |  |  |  |  | 
4 | N#CCC(=O)NC1C2CC3CC(C2)CC1C3 (stereo not drawn) | 31.5 µM | 50.5 µM | 61.6 µM | 33.3 µM | 34.1 µM | 29.8 µM |  | 31 µM |  | 55.7 µM |  |  |  |  |  |  |  |  |  | 
5 | CC(C)c1cc2c(O)c(c1)Cc1cc(C(C)C)cc(c1O)Cc1cc(C(C)C)cc(c1O)Cc1cc(C(C)C)cc(c1O)C2 |  | > 100 µM | > 100 µM |  | > 100 µM | > 100 µM |  | > 100 µM |  | > 100 µM |  |  |  |  |  |  |  |  |  | 
6 | COC(=O)C(=Cc1cc(OC)c(OC)c(OC)c1-c1cc2c(cc1C(C)=O)OCO2)C(=O)OC | 58.8 µM |  | 172 µM | 100 µM | 108 µM | 66.4 µM |  | 62.2 µM |  | 61.7 µM |  |  |  |  |  |  |  |  |  | 
7 | COC(=O)c1cc(C)c(C)c2c1NC(=O)CNC2=O | > 100 µM | > 100 µM | > 100 µM | > 100 µM | > 100 µM | > 100 µM |  |  |  | > 100 µM |  |  |  |  |  |  |  |  |  | 
8 | NCCCn1c2c(c3ccc([N+](=O)[O-])cc3c1=O)C(=O)c1cc(Br)ccc1-2 | 0.0566 µM |  |  | 0.0477 µM | 0.623 µM | 0.111 µM and 0.014 µM | 1.36 µM |  | 0.218 µM and 0.103 µM |  | 0.0154 µM | 0.102 µM | 0.0187 µM | 0.267 µM and 0.162 µM | 0.29 µM | 0.219 µM | 0.0364 µM and 0.0168 µM | 0.0202 µM |  | 
9 | C=C[C@H]1C[C@@H]2C[C@@H]3[C@H]4C/C=C\C(=O)NCCCC5NC(=O)C(=C(O)/C=C/[C@@H]4CC(=O)[C@H]3[C@@H]2[C@H]1C)C5=O (stereo partly drawn) | 0.342 µM | 0.413 µM | 3.42 µM | 0.343 µM | 0.374 µM | 3.07 µM | 0.408 µM |  | 0.537 µM | 2.58 µM | 0.182 µM | 0.21 µM | 0.18 µM | 0.203 µM |  | 0.191 µM | 0.232 µM | 1.61 µM | 1.68 µM | 1.08 µM
10 | COc1ccc(-c2nnc(COc3ccc(NC(=O)Nc4ccc(Cl)c(C(F)(F)F)c4)cc3F)o2)cc1 | 56 µM | 13.7 µM | 6.12 µM | 10.7 µM | 29.2 µM | 5.7 µM | 36.9 µM |  | 8.72 µM | 9.87 µM | 3.8 µM | 2.93 µM | 2.55 µM | 3.8 µM |  | 4.07 µM | 1.91 µM | 1.93 µM | 2.41 µM | 3.61 µM
11 | Cc1ccc(NC(=O)c2sc3nc(C)c(C(O)c4ccccc4)cc3c2N)cc1 (stereo not drawn) | 25.9 µM | 47 µM | 0.909 µM | 20.2 µM | 25.9 µM | 22.4 µM |  | > 48.7 µM | 21.8 µM | 67.3 µM | 0.664 µM | 1.55 µM | 0.658 µM |  | 0.617 µM | 0.45 µM | 0.777 µM | 0.384 µM | 0.293 µM | 1.32 µM
12 | O=C(Nc1ccc(Cl)cc1Cl)C(=O)C(C(=O)c1ccncc1)C1OC(=O)c2ccccc21 (stereo not drawn) | > 100 µM | > 100 µM | > 100 µM | > 100 µM | > 100 µM | > 100 µM |  | > 100 µM |  |  |  |  |  |  |  |  |  |  |  | 
13 | CC(C)(C)c1ccc(O)c(CN(Cc2cc(C(C)(C)C)ccc2O)c2ccccc2)c1 | 32.1 µM | 61.8 µM |  | 35.5 µM | > 100 µM | 28.4 µM | 36.4 µM | 26.9 µM | 31.7 µM | 33.3 µM |  |  |  |  |  |  |  |  |  | 
14 | COc1ccc2nc3cc(Cl)ccc3c(NCCN)c2c1 |  | 3.02 µM | 4.67 µM | 3.17 µM | 3.06 µM | 3.09 µM | 3.36 µM | 3.56 µM |  | 31.2 µM |  | 1.61 µM | 1.58 µM | 1.76 µM | 1.73 µM | 1.65 µM |  | 1.71 µM | 2.16 µM | 14.5 µM
15 | COc1cccc(N2C(=O)[C@H]3CC(C)c4c([nH]c5ccccc45)[C@H]3C2=O)c1 (stereo partly drawn) | > 100 µM |  | > 100 µM |  | > 100 µM | > 100 µM |  | > 100 µM |  | > 100 µM |  |  |  |  |  |  |  |  |  | 
16 | COC(=O)C(=O)C(C(=O)C=C(C)C)C(=O)C(=O)Nc1ccc(C)cc1C (stereo not drawn) | > 100 µM | > 100 µM | > 100 µM | > 100 µM | > 100 µM | > 100 µM |  | > 100 µM |  | > 100 µM |  |  |  |  |  |  |  |  |  | 
17 | CC(C)CCCC(=O)CCCCCCC(=O)CCN(O)C(=O)C(N)CO (stereo not drawn) | 43 µM |  | 60.2 µM | 34.9 µM | 39.4 µM | 65 µM | 83.6 µM |  | 34.7 µM | 39.5 µM |  |  |  |  |  |  |  |  |  | 
18 | CC(C)c1ccc(C(c2ccc(OCC(=O)O)cc2)c2ccc(C(C)C)cc(=O)c2O)c(O)c(=O)c1 | 24.3 µM | 12.8 µM | 15 µM | 28 µM | 18.1 µM | 24.9 µM |  |  |  |  |  |  |  |  |  |  |  |  |  | 
19 | COc1ccc(/C(Cl)=C(\C=O)c2ccc([N+](=O)[O-])cc2)cc1 | 49.1 µM | 57.3 µM | 10.7 µM | 70.5 µM | 33.8 µM | 19.4 µM |  | > 46.8 µM |  | 41.3 µM |  |  |  |  |  |  |  |  |  | 
20 | COC(C(O)c1ccc2c(c1)OCO2)P(=O)(c1ccccc1)c1ccccc1 (stereo not drawn) | > 100 µM | 30.9 µM | > 100 µM | > 100 µM | > 100 µM | > 100 µM |  | > 100 µM |  | > 100 µM |  |  |  |  |  |  |  |  |  | 
